Results on 22 molecules are retold here after US8378104B2 (OSI Pharmaceuticals, LLC, priority 2010, dated 2013).

What is called IC50 is the point on the concentration scale where inhibition reaches its midpoint.

One assay has as its system pJNK in HCT-116 cells. As to the kind of experiment: Phospho-JNK (Thr183/Tyr185) Meso Scale ELISA assay, TNFα-stimulated HCT-116 cells. In kind it is cell-based. To be noted: Homo sapiens, read-out: mean HCT-116 pJNK ELISA IC50 (Col. B). An outline of the steps:
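HCT-116 cells in 1% FCS medium were pretreated with compound for 4 hrs at 37° C, then stimulated with TNFα at 10 ng/mL final for 10 minutes. Lysates were taken in ice-cold lysis buffer with phosphatase and protease inhibitors, and phospho-JNK (Thr183/Tyr185) was measured by Meso Scale ELISA.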
On the technique in general: ELISA stands for enzyme-linked immunosorbent assay.

The subject of the next assay is p-p38 in HCT-116 cells. Briefly: Phospho-p38 Meso Scale ELISA assay, TNFα-stimulated HCT-116 cells. In kind it is cell-based. The note with it: Homo sapiens, read-out: mean HCT-116 p-p38 ELISA IC50 (Col. C). The procedure, abridged:
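HCT-116 cells in 1% FCS medium for 2 h, then compound for 4 h at 37° C, then TNFα at 10 ng/mL final for 10 min. Lysates captured overnight at 4° C and phospho-p38 quantified by Meso Scale electrochemiluminescence ELISA.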

The target in another assay is T1, TAK1-TAB1 fusion protein (Homo sapiens, UniProt O43318).
T1 construct: purchased Carna
T1 sequence (O43318 with tags, fused parts or gaps limits assumed): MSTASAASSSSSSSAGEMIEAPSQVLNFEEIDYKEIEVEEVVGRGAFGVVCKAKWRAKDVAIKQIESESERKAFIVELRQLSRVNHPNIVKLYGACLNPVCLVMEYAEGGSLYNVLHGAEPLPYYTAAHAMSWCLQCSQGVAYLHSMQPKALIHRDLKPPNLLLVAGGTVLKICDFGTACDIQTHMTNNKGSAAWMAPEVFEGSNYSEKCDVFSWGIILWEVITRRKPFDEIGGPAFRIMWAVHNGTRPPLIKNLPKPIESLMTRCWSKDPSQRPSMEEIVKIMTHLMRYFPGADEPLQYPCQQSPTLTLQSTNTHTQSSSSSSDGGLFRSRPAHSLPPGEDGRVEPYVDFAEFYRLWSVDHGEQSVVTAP
Briefly: TAK1 biochemical assay (AlphaScreen, GST-MAP2K7 substrate). The note with it: TAK1-TAB1 fusion protein, GST-MAP2K7 substrate; read-out: mean TAK1 IC50 (Col. A).

Counter-ions that a name gives are not always drawn.

With `CC(=O)N1CCC(n2cc(-c3cnc(N)c4oc(-c5cnc6[nH]ccc6c5)cc34)cn2)CC1` [Example 155, 1-(4-{4-[7-amino-2-(1H-pyrrolo[2,3-b]pyridin-5-yl)furo[2,3-c]pyridin-4-yl]-1H-pyrazol-1-yl}piperidin-1-yl)ethanone], the half-inhibitory concentration (IC50) in the assay with pJNK in HCT-116 cells lay in the range of 0.1 to 1 µM; in the assay on p-p38 in HCT-116 cells it was 1 to 10 µM; at TAK1-TAB1 fusion protein it was 0.1 to 1 µM.

For the molecule `Nc1ncc(-c2cnn(C3CCCCC3)c2)c2cc(-c3c[nH]c4cnccc34)oc12` [Example 89, 4-(1-cyclohexyl-1H-pyrazol-4-yl)-2-(1H-pyrrolo[2,3-c]pyridin-3-yl)furo[2,3-c]pyridin-7-amine], the IC50 with pJNK in HCT-116 cells is 0.1 to 1 µM; in the assay on p-p38 in HCT-116 cells, 0.1 to 1 µM; on TAK1-TAB1 fusion protein, under 0.1 µM.

With `CC(=O)N1CCC(n2cc(-c3cnc(N)c4oc(-c5cccc6c5oc5ccccc56)cc34)cn2)CC1` [Example 93, 1-(4-{4-[7-amino-2-(dibenzo[b,d]furan-4-yl)furo[2,3-c]pyridin-4-yl]-1H-pyrazol-1-yl}piperidin-1-yl)ethanone], the values for the concentration for half-maximal inhibition (IC50) with pJNK in HCT-116 cells, in the assay with p-p38 in HCT-116 cells and at TAK1-TAB1 fusion protein were 1 to 10 µM, 1 to 10 µM and over 10 µM, respectively.

With `CC1(C)OC[C@@H](Cn2cc(-c3cnc(N)c4oc(-c5csc6cnccc56)cc34)cn2)O1` [Example 297, 4-[1-((R)-2,2-dimethyl-[1,3]dioxolan-4-ylmethyl)-1H-pyrazol-4-yl]-2-thieno[2,3-c]pyridin-3-yl-furo[2,3-c]pyridin-7-ylamine], the figures for the IC50 in the assay with pJNK in HCT-116 cells, in the assay on p-p38 in HCT-116 cells and at TAK1-TAB1 fusion protein were 0.1 to 1 µM, 1 to 10 µM and 0.1 to 1 µM, respectively.

On to `CC(=O)N1CCC(n2cc(-c3cnc(N)c4oc(-c5csc6cncc(F)c56)cc34)cn2)CC1` [Example 254, 1-(4-{4-[7-amino-2-(4-fluorothieno[2,3-c]pyridin-3-yl)furo[2,3-c]pyridin-4-yl]-1H-pyrazol-1-yl}piperidin-1-yl)ethanone trifluoroacetic Acid Salt], for which the concentration for half-maximal inhibition (IC50) is 0.1 to 1 µM with pJNK in HCT-116 cells, 0.1 to 1 µM in the assay on p-p38 in HCT-116 cells and under 0.1 µM on TAK1-TAB1 fusion protein.

For the molecule `CC(C)C(=O)N1CCC(n2cc(-c3cnc(N)c4oc(-c5cccc6cnccc56)cc34)cn2)CC1` [Example 51, 1-(4-{4-[7-amino-2-(isoquinolin-5-yl)furo[2,3-c]pyridin-4-yl]-1H-pyrazol-1-yl}piperidin-1-yl)-2-methylpropan-1-one], the IC50 is under 0.1 µM in the assay on pJNK in HCT-116 cells, under 0.1 µM with p-p38 in HCT-116 cells and 0.1 to 1 µM on TAK1-TAB1 fusion protein.

`CC(=O)N1CCC(n2cc(-c3cnc(N)c4oc(C5=CCCCC5)cc34)cn2)CC1` [Example 142, 1-(4-{4-[7-amino-2-(cyclohex-1-en-1-yl)furo[2,3-c]pyridin-4-yl]-1H-pyrazol-1-yl}piperidin-1-yl)ethanone]: the IC50 in the assay on pJNK in HCT-116 cells lay in the range of 0.1 to 1 µM; with p-p38 in HCT-116 cells, 1 to 10 µM; on TAK1-TAB1 fusion protein, 0.1 to 1 µM.

Take `Nc1ncc(-c2cnn([C@H]3CC[C@H](O)CC3)c2)c2cc(-c3cccc4cnsc34)oc12` [Example 234, trans-4-{4-[7-amino-2-(1,2-benzothiazol-7-yl)furo[2,3-c]pyridin-4-yl]-1H-pyrazol-1-yl}cyclohexanol]: the concentration for half-maximal inhibition (IC50) in the assay with pJNK in HCT-116 cells was under 0.1 µM; in the assay on p-p38 in HCT-116 cells it was 0.1 to 1 µM; on TAK1-TAB1 fusion protein, under 0.1 µM.

As to `CC(=O)N1CCC(n2cc(-c3cnc(N)c4oc(-c5c(C)sc6cnccc56)cc34)cn2)CC1` [Example 253, 1-(4-{4-[7-amino-2-(2-methylthieno[2,3-c]pyridin-3-yl)furo[2,3-c]pyridin-4-yl]-1H-pyrazol-1-yl}piperidin-1-yl)ethanone trifluoroacetate], the half-inhibitory concentration (IC50) in the assay with pJNK in HCT-116 cells was 0.1 to 1 µM; with p-p38 in HCT-116 cells, 1 to 10 µM; on TAK1-TAB1 fusion protein, under 0.1 µM.

With `COCC(=O)N1CCC(n2cc(-c3cnc(N)c4oc(-c5cccc6cnccc56)cc34)cn2)CC1` [Example 50, 1-(4-{4-[7-amino-2-(isoquinolin-5-yl)furo[2,3-c]pyridin-4-yl]-1H-pyrazol-1-yl}piperidin-1-yl)-2-methoxyethanone], the IC50 in the assay on pJNK in HCT-116 cells, with p-p38 in HCT-116 cells and at TAK1-TAB1 fusion protein was 0.1 to 1 µM throughout.

For the molecule `CC(=O)N1CCC(n2cc(-c3cnc(N)c4oc(-c5cccc6c5OC(F)(F)O6)cc34)cn2)CC1` [Example 191, 1-(4-{4-[7-amino-2-(2,2-difluoro-1,3-benzodioxol-4-yl)furo[2,3-c]pyridin-4-yl]-1H-pyrazol-1-yl}piperidin-1-yl)ethanone], the half-maximal inhibitory concentration (IC50) in the assay on pJNK in HCT-116 cells, in the assay with p-p38 in HCT-116 cells and on TAK1-TAB1 fusion protein was 0.1 to 1 µM throughout.

For the molecule `CC(=O)N1CCC(n2cc(-c3cnc(N)c4oc(-c5scc6c5OCCO6)cc34)cn2)CC1` [Example 109, 1-(4-{4-[7-amino-2-(2,3-dihydrothieno[3,4-b][1,4]dioxin-5-yl)furo[2,3-c]pyridin-4-yl]-1H-pyrazol-1-yl}piperidin-1-yl)ethanone], the IC50 with pJNK in HCT-116 cells was 0.1 to 1 µM; in the assay on p-p38 in HCT-116 cells, 1 to 10 µM; on TAK1-TAB1 fusion protein it was 0.1 to 1 µM.

Consider `COc1cc2c(-c3cc4c(-c5cnn(C6CCN(C(C)=O)CC6)c5)cnc(N)c4o3)csc2cn1` [Example 243, 1-(4-{4-[7-amino-2-(5-methoxythieno[2,3-c]pyridin-3-yl)furo[2,3-c]pyridin-4-yl]-1H-pyrazol-1-yl}piperidin-1-yl)ethanone], for which the IC50 was 0.1 to 1 µM with pJNK in HCT-116 cells, 1 to 10 µM in the assay with p-p38 in HCT-116 cells and 1 to 10 µM at TAK1-TAB1 fusion protein.

Regarding `CC(=O)N1CCC(n2cc(-c3cnc(N)c4oc(-c5c(C)n[nH]c5C)cc34)cn2)CC1` [Example 180, 1-(4-{4-[7-amino-2-(3,5-dimethyl-1H-pyrazol-4-yl)furo[2,3-c]pyridin-4-yl]-1H-pyrazol-1-yl}piperidin-1-yl)ethanone], the concentration for half-maximal inhibition (IC50) is 1 to 10 µM in the assay with pJNK in HCT-116 cells, 1 to 10 µM with p-p38 in HCT-116 cells and 0.1 to 1 µM on TAK1-TAB1 fusion protein.

As for `CC(=O)N1CCC(n2cc(-c3cnc(N)c4oc(-c5ccc6ncn(C)c6c5)cc34)cn2)CC1` [Example 111, 1-(4-{4-[7-amino-2-(1-methyl-1H-benzimidazol-6-yl)furo[2,3-c]pyridin-4-yl]-1H-pyrazol-1-yl}piperidin-1-yl)ethanone], the IC50 in the assay on pJNK in HCT-116 cells is 1 to 10 µM; in the assay on p-p38 in HCT-116 cells it was over 10 µM; at TAK1-TAB1 fusion protein it was 0.1 to 1 µM.

As for `CC(=O)N1CCC(n2cc(-c3cnc(N)c4oc(-c5ccc6c(c5)C(=O)NC6)cc34)cn2)CC1` [Example 96, 6-{4-[1-(1-acetylpiperidin-4-yl)-1H-pyrazol-4-yl]-7-aminofuro[2,3-c]pyridin-2-yl}-2,3-dihydro-1H-isoindol-1-one], the results for the IC50 in the assay with pJNK in HCT-116 cells, with p-p38 in HCT-116 cells and at TAK1-TAB1 fusion protein were 1 to 10 µM, over 10 µM and 0.1 to 1 µM, respectively.

In the case of `CNc1ncc(-c2cnn(C3CCN(C(C)=O)CC3)c2)c2cc(-c3c[nH]c4cnccc34)oc12` [Example 280, 1-(4-{4-[7-(methylamino)-2-(1H-pyrrolo[2,3-c]pyridin-3-yl)furo[2,3-c]pyridin-4-yl]-1H-pyrazol-1-yl}piperidin-1-yl)ethanone trifluoroacetic acid salt], the IC50 in the assay on pJNK in HCT-116 cells was 1 to 10 µM; in the assay on p-p38 in HCT-116 cells it was 0.1 to 1 µM; at TAK1-TAB1 fusion protein, under 0.1 µM.

On to `CSc1cccc(-c2cc3c(-c4cnn(C5CCN(C(C)=O)CC5)c4)cnc(N)c3o2)c1` [Example 133, 1-[4-(4-{7-amino-2-[3-(methylsulfanyl)phenyl]furo[2,3-c]pyridin-4-yl}-1H-pyrazol-1-yl)piperidin-1-yl]ethanone], for which the IC50 in the assay with pJNK in HCT-116 cells, in the assay on p-p38 in HCT-116 cells and at TAK1-TAB1 fusion protein was 1 to 10 µM in each case.

For `Nc1ncc(-c2cn[nH]c2)c2cc(-c3c[nH]c4cnccc34)oc12` [Example 87, 4-(1H-pyrazol-4-yl)-2-(1H-pyrrolo[2,3-c]pyridin-3-yl)furo[2,3-c]pyridin-7-amine trifluoroacetic acid salt], the values for the 50% inhibitory concentration (IC50) in the assay on pJNK in HCT-116 cells, in the assay with p-p38 in HCT-116 cells and on TAK1-TAB1 fusion protein were 0.1 to 1 µM, 1 to 10 µM and under 0.1 µM, respectively.

As for `CC(=O)N1CCC(n2cc(-c3cnc(N)c4oc(-c5ccccc5C#N)cc34)cn2)CC1` [Example 171, 2-{4-[1-(1-acetylpiperidin-4-yl)-1H-pyrazol-4-yl]-7-aminofuro[2,3-c]pyridin-2-yl}benzonitrile], the figures for the 50% inhibitory concentration (IC50) in the assay on pJNK in HCT-116 cells, in the assay with p-p38 in HCT-116 cells and at TAK1-TAB1 fusion protein were 1 to 10 µM, 1 to 10 µM and 0.1 to 1 µM, respectively.

For the molecule `CC(=O)c1cccc(-c2cc3c(-c4cnn(C5CCN(C(C)=O)CC5)c4)cnc(N)c3o2)c1` [Example 124, 1-(4-{4-[2-(3-acetylphenyl)-7-aminofuro[2,3-c]pyridin-4-yl]-1H-pyrazol-1-yl}piperidin-1-yl)ethanone], the concentration for half-maximal inhibition (IC50) lay within 0.1 to 1 µM with pJNK in HCT-116 cells, 1 to 10 µM in the assay on p-p38 in HCT-116 cells and 1 to 10 µM at TAK1-TAB1 fusion protein.

Regarding `Cc1nn(CC(O)CO)c(C)c1-c1cnc(N)c2oc(-c3cccc4cnccc34)cc12` (stereo not drawn) [Example 400, 3-{4-[7-amino-2-(isoquinolin-5-yl)furo[2,3-c]pyridin-4-yl]-3,5-dimethyl-1H-pyrazol-1-yl}propane-1,2-diol], the results for the half-maximal inhibitory concentration (IC50) in the assay with pJNK in HCT-116 cells, in the assay with p-p38 in HCT-116 cells and at TAK1-TAB1 fusion protein were 1 to 10 µM, 1 to 10 µM and over 10 µM, respectively.
